According to patent US20260284020A1, “LATS KINASE INHIBITOR TO TREAT RETINAL DEGENERATION” (Children's Hospital Los Angeles, priority 2023, published 2026):
Entries after “also recorded” stand apart in the source; their conditions may differ. Read-outs that look alike come from different tables or passages of the source.

Key:
[1] = tested on: primary human fetal RPE monolayers; assay: In vitro cell proliferation (EdU+ cells) in RPE monolayers; assay type: cell-based; conditions: for percentage of EdU+ cells / EdU+ cells compared to DMSO in the absence of injury (in words): 96 hours; for percentage of EdU+ cells: 1 μM, mean±SE; for EdU+ cells compared to DMSO in the absence of injury (in words): uninjured monolayers
Method: (§1) Following 72-hour acclimation period, RPE monolayers were then subjected to a controlled horizontal scratch using the WoundMaker Tool™ (Essen BioScience Ltd., Welwyn Garden City, United Kingdom) according to the protocol provided by the manufacturer. Wells were subsequently washed 1-2 times with their respective media in order to remove cell debris. Cells were then treated with either 1 μM DMSO (as control) or 1 μM TDI-011536 dissolved in either FBS-containing or FBS-free media. To label and track proliferating cells, cells were incubated with 10 μM 5-Ethynyl-2′-deoxyuridine (EdU) for 96 hours.
Ninety-six hours after the scratch, cells were immediately fixed with 4% paraformaldehyde (PFA) in phosphate-buffered saline (PBS) for 15 minutes at room temperature (RT). Cells were washed three times with PBS in between each step. Following fixation, cells were blocked and permeabilized with 3% bovine serum albumin (BSA) and 0.1% Triton X-100 in PBS for 2 hours at RT. Cells were then incubated with an EdU reaction cocktail according to the manufacturer's instructions for 30 minutes at RT, protected from light. Then, cells were incubated overnight with primary antibodies diluted in 3% BSA in PBS. The following morning, cells were incubated with secondary antibodies diluted in 3% BSA in PBS for 2 hours at RT, protected from light. Cells were counterstained with DAPI and then washed. A list of reagents and dilutions used can be found in Table 1.
Regions measuring 800 μm^2 at various distances from the scratch within each well were analyzed. In uninjured wells, three regions were randomly selected within each well. In scratched wells, three regions were centered within the original scratch area (scratch region), which was determined by overlaying the brightfield image taken immediately post-scratch over the fluorescence images 96 hours post-scratch. Another three regions were selected immediately adjacent to the original scratch area but not within it (proximal region). Finally, three additional regions at least 800 μm from the original scratch area were selected (distal region). Apart from scratch regions, only regions that were intact and confluent immediately post-scratch were analyzed. Regions with significant cell loss or those that were otherwise not confluent following the scratch were excluded from analysis.
Within each region, cell proliferation was quantified by dividing EdU/DAPI doubly positive cells by the total number of DAPI+ cells, expressed as a percentage. PAX6 expression was quantified as the ratio of PAX6+ nuclei among EdU/DAPI doubly positive nuclei, also expressed as a percentage.
To assess the effect of Lats kinase inhibition on cell proliferation in the absence of injury, RPE monolayers were incubated with EdU for 96 hours with the addition of LKI or DMSO. Cell proliferation was quantified as the percentage of EdU+ cells within 3 randomly selected regions within each well.
To assess whether Lats kinase inhibition accelerates wound healing via RPE proliferation in vitro, and the mechanism of wound closure with Lats kinase inhibition, RPE monolayers were incubated with EdU following the initial scratch and remained exposed to EdU for 96 hours. At 96 hours, cells were fixed and stained for various cell markers. The percentage of EdU+ cells within scratch, proximal, and distal regions was recorded (FIG. 2A).

[2] = tested on: primary human fetal RPE monolayers; assay: In vitro wound healing (scratch) assay in RPE monolayers; assay type: cell-based; conditions: for wound healing (wound closure, change in wound area as a percentage): 1 μM, mean±SE
Method: Approximately 72 hours before wound induction, culture media for primary human fetal RPE either remained supplemented with 5% FBS as above (FBS-containing condition) or was replaced with culture media not containing FBS (FBS-free condition). Culture media for iPSC-derived RPE either remained as X-VIVO media as above (FBS-free condition) or was supplemented with 5% FBS (FBS-containing condition).
as §1
Each well was imaged immediately following the scratch injury with a DMI6000B microscope equipped with 10×/0.3 HC PL FLUOTAR Ph1 (Leica Microsystems, Buffalo Grove, IL) and ORCA-Flash4.0 LT camera (Hamamatsu Corp., Bridgewater, NJ). Along the length of each scratch, 2-3 ROIs measuring 1100 μm in length were imaged again 24, 48, 72, and 96 hours after the scratch injury. All ROIs were positioned in the central portion of the scratch. Coordinates of ROIs within each well were stored using Leica Application Suite X software. Non-uniform scratches and/or those with small width or resulting in monolayer detachment were excluded.
Scratch areas in μm^2 for each ROI were obtained using the Wand Tool in QuPath at each time point (e.g., 0, 24, 48, 72, and 96 hours after the scratch). Wound healing was quantified as the difference in scratch area at each time point normalized to (e.g., divided by) the total area immediately post-scratch, expressed as a percentage.
A wound healing assay, which involves creating a uniform scratch on a confluent monolayer of cells, is a commonly used method to study response to injury in vitro. To assess whether Hippo pathway inhibition promotes RPE regeneration, a wound healing assay was performed on primary human fetal RPE monolayers grown on 96-well plates in various culture conditions. RPE monolayers were subjected to a horizontal scratch and incubated with EdU and either LKI or vehicle. Wound closure was monitored every 24 hours for 96 hours total (FIGS. 1A and 1B).

RPE monolayers = assay: Toxic effects in vitro; assay type: cell-based, human
[3] = proximal regions, FBS-free media
[4] = scratch regions, FBS-free media

With `O=C(/N=c1\scc(CO)n1Cc1ccccc1)c1c[nH]c2ncccc12` [TDI-011536] the “percentage of EdU+ cells in monolayers not subjected to injury (in words)” value ([1]; discussion, media not stated) was “only a modest increase”, the “percentage of EdU+ cells” value ([1]; distal regions, FBS-free media) was 3.20±0.48% and the “difference in percentage of EdU+ cells, LKI vs control” value (“difference in percentage” for short) ([1]; distal regions, FBS-free media) was 0.91±0.62%. The “percentage of EdU+ cells compared to control (in words)” value (“percentage … to control (in words)” for short) ([1]; distal regions, FBS-free media) was “no significant difference”, the “percentage of EdU+ cells” value [1, 3] was 10.25±1.30% and the “difference in percentage” value [1, 3] was 7.36±1.38%. For the same molecule, the “percentage … to control (in words)” value [1, 3] was “significantly higher percentage of EdU+ cells”, the “percentage of EdU+ cells” value [1, 4] was 40.11±2.07% and the “difference in percentage” value [1, 4] was 6.88±2.80%. The “percentage … to control (in words)” value [1, 4] was “significantly higher percentage of EdU+ cells”, the “percentage … to control (in words)” value ([1]; scratched monolayers, FBS-containing media) was “significantly higher percentage of EdU+ cells at the scratch site and proximal areas but not distal areas” and the “EdU+ cells compared to DMSO in the absence of injury (in words)” value ([1]; FBS-containing media) was “significantly more EdU+ cells”. The “EdU+ cells compared to DMSO in the absence of injury (in words)” value ([1]; FBS-free media) was “significantly more EdU+ cells”, the “wound healing (wound closure, change in wound area as a percentage)” value ([2]; 24 hours after scratch, FBS-free media) was 25.06±0.96% and the “difference in wound closure, LKI compared to control” value (shortened to “difference in wound closure, LKI”) ([2]; 24 hours, FBS-free media) was 8.25±1.49%. For the same molecule, the “wound healing (wound closure, change in wound area as a percentage)” value ([2]; 48 hours after scratch, FBS-free media) was 58.72±1.37%, the “difference in wound closure, LKI” value ([2]; 48 hours, FBS-free media) was 17.53±2.00% and the “wound healing (wound closure, change in wound area as a percentage)” value ([2]; 72 hours after scratch, FBS-free media) was 85.14±1.16%. For the same molecule, the “difference in wound closure, LKI” value ([2]; 72 hours, FBS-free media) was 19.78±1.81%, the “wound healing (wound closure, change in wound area as a percentage)” value ([2]; 96 hours after scratch, FBS-free media) was 91.14±1.17% and the “difference in wound closure, LKI” value ([2]; 96 hours, FBS-free media) was 14.02±1.85%. For the same molecule, the “wound closure compared to DMSO (in words)” value ([2]; FBS-containing media, all timepoints) was “significantly increased wound closure at all timepoints”, the “wound closure compared to control (in words)” value ([2]; FBS-free media, all time points 24-96 hours, listed as LKI) was “significantly increased at all time points; also recorded: significantly improved wound closure at all time points” and the “toxic effects in vitro” value (RPE monolayers) was “No toxic effects”. For the same molecule, the “toxic effects in vitro” value (RPE monolayers; listed as LKI) was “no toxic effects”.
